Source: EP0845266A2, “Sweet whey concentrate containing antioxidant compositions” (MK-Produktkontor GmbH, priority 1996, dated 1998)

Target: T1, Myeloperoxidase (MPO) (Homo sapiens, UniProt P05164)
T1 sequence (P05164 49-745): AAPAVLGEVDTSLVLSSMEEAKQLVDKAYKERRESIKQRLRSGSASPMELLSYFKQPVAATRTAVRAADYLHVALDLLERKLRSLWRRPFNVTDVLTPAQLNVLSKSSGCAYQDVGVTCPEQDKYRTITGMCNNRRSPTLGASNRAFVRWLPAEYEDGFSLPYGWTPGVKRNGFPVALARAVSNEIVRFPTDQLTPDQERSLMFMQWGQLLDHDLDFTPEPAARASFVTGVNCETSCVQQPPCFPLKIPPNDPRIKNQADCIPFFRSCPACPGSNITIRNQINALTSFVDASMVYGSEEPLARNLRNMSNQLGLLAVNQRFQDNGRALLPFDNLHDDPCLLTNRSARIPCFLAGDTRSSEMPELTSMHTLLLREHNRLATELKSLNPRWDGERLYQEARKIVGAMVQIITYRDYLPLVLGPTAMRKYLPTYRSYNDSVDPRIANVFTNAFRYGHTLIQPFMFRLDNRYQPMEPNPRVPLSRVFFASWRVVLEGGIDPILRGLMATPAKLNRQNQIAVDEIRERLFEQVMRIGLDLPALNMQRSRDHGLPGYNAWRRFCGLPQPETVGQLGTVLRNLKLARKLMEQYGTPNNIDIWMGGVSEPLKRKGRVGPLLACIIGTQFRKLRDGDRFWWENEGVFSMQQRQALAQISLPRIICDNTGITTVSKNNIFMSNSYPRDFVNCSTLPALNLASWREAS
Assay: Myeloperoxidase reaction: MPO-catalysed formation of HOCl, measured as ethylene release from ACC by gas chromatography
Assay type: biochemical
Conditions: CAR, in mixtures SMK 3 mg im Ansatz, 30 min, 37 °C, pH 5,7, read-out: % Hemmung; for inhibition at 100 µM: 0,1 mM AN; for inhibition at 1000 µM: 1,0 mM AN
Description: Die Inhibitionswirkung wurde in einem In-vitro-Teststystem geprüft, das die oxidativen Prozesse während eine Entzündung simulieren soll.
Myeloperoxidase (MPO) wird von aktivierten Leukozyten während der Degranulation in das Phagosom und das umliegende Gewebe abgegeben. Das Enzym katalysiert die Bildung von HOCl aus H2O2 und Chlorid. Durch Messung der HOCl-Konzentration in dem Reaktionssystem kann das Ausmaß der Inhibition bestimmt werden. Hypochlorit (HOCl) spaltet spezifisch Aminocyclopropancarbonsäure (ACC), wobei Ethylen entsteht.
Dieses wiederum kann gaschromatographisch identifiziert werden.
Der Einfluß einer Mischung aus Süßmolkekonzentrat (SMK) und Anserin bzw. Carnosin sowie der einzelnen Komponenten in den in Tabelle 1 angegebenen Konzentrationen auf die MPO-katalysierte Bildung von HOCl wurde untersucht. Tabelle 1
Es wurde folgender Ansatz verwendet: 0,15 M NaCl, 25 µM H2O2, 0,1 E MPO, 0,1 M Phosphatpuffer mit einem pH-Wert von 5,7 und 1 mM ACC. Die Inkubationsdauer beträgt 30 Minuten bei 37 °C. Die Ethylen-Freisetzungsrate eines Ansatzes ohne Zugabe potentieller Inhibitorstoffe entspricht einer Grundrate von 100% (0% Hemmung).

Row | SMILES | inhibition at 100 µM [%] | inhibition at 1000 µM [%]
1 | Cn1cncc1C[C@H](NC(=O)CCN)C(=O)O [AN, Anserin] | 23 | 84
2 | NCCC(=O)N[C@@H](Cc1cnc[nH]1)C(=O)O [CAR, Carnosin] | 23 | 86
